System: rat mesenchymal stem cells
Assay: Culture screening adipogenesis assay (lipid accumulation, Oil Red O / BODIPY)
Type: cell-based
Conditions: insulin in the progressing medium, positive control set as 100%
Procedure: To prepare adipogenesis initiation/priming medium, a IBMX standard solution ([…]) is diluted 1:1000 and a dexamethasone standard solution (1 μM dexamethasone standard solution (in DMSO)) is diluted 1:10,000 in DMEM+10% FCS. A typical cocktail of antibiotics can be added to restrict microbe growth. This initiation medium can be stored for up to 6 weeks at 4° C.
To prepare positive control progression medium, a standard insulin solution (10 μg/ml insulin) is diluted 1:1000 in DMEM+10% FCS. Antibiotics of choice are added to control growth of microbes. This control progression medium can be stored for up to 6 weeks at 4° C.
To prepare experimental/test (e.g., RHAMM blocking or other experimental adipogenic promoting reagent) progression medium, test agents are provided in a standard solution (e.g. 0.001-10 μg RHAMM antibody, peptide mimetic(s), or other test agent(s)). The test agent solution is diluted to the desired concentration (e.g. 1 ng-10 μg RHAMM peptide) in DMEM+10% FCS. […]
Cells for the adipogenesis screen can be plated as follows: The cells are trypsinized and then resuspended in 1 ml DMEM+10% CS to neutralize the trypsin. The cells are then counted. […]
The dye can be extracted with methanol:ethanol (1:1) mixture and read oil red O at 520 nm using an ELISA plate reader or for BODIPY® using a fluorometer that detects FITC.

insulin
Extent of lipid accumulation (Oil Red O at 520 nm): 100%
